Measurements reported in the NIST ThermoML archive (doi:10.1021/je900669t).
Numbers after ± are expanded uncertainties.

Experiments:
[1] = Liquid; for mass density: 298.15 K, 101.33 kPa; for Normal boiling temperature: Ebulliometric method (Recirculating still)
[2] = refractive index (Na D-line) (dimensionless); conditions: 293.15 K; 101.33 kPa; Liquid; Standard Abbe refractometry

| Structure (SMILES) | mass density [1] [kg/m3] | Normal boiling temperature [1] [°C] | refractive index [2] |
| --- | --- | --- | --- |
| CC(=O)O [acetic acid] | 1046.9 ± 1.6 | 118.29 ± 0.2 | 1.3715 ± 0.0005 |
| CC(=O)CC(C)=O [2,4-pentanedione] | 971.7 ± 1.4 | 140.5 ± 0.2 | 1.4489 ± 0.0005 |
| C1CCCCC1 [cyclohexane] | 779.6 ± 7.6 | 80.8 ± 0.2 | 1.4259 ± 0.0005 |
